Test results: article PMC8501045, “Addressing MRSA infection and antibacterial resistance with peptoid polymers” (Nature Communications, 2021)
≈ marks a conversion by molar mass, not a printed value.

What was measured:
S. aureus USA300 LAC = test: Mouse full-thickness wound infection model, MRSA; format: in vivo; conditions: 1.56 mg/mL topical
Description: This infection model was conducted according to the previously reported method with slight modification. Female balb/c mice (20–21 g) were used in the full-thickness wound model caused by MRSA. Prior to surgery, mice were anesthetized with an intraperitoneal injection of sodium pentobarbital at a dose of 75 mg/kg. The dorsal hair was shaved, and the skin was rinsed with 75% alcohol three times. The 6-mm-diameter full-thickness wounds were punctured on either side of the back using a biopsy punch. An aliquot of 10 µL S. aureus USA300 LAC suspension (1.25 × 10^5 CFU/mL) was added to wound site. The wound site was covered by Tegaderm dressing (3 M, St Paul, MN) to prevent contamination. […] The treatments were applied every 4 h for a total of three times. After the last treatment for 4 h, mice were euthanized with an overdose of sodium pentobarbital. The wound sites were excised, weighed, and homogenized in PBS containing 0.1% TX-100. Then the homogenate was serially diluted for plating on LB agar. After incubation at 37 °C for 14 h, the number of colonies on the plate was counted to calculate the bacteria burden of wounds.

S. agalactiae 0613 = test: MIC assay, clinical isolate; format: cell-based; conditions: Streptococcus agalactiae, 0613
Description: (§1) MRSA (S. aureus Mu50, S. aureus Newman, S. aureus USA400, S. aureus USA300 LAC, S. aureus USA300) were obtained from Shanghai Institute of Materia Medica, Chinese Academy of Sciences. All clinically isolated Gram-positive bacteria used in this study were isolated from patients with various infections, different ages and sexes in the Shanghai Ruijin Rehabilitation Hospital. All strains were cultured in Luria-Bertani (LB) medium at 37 °C before use.
(§2) Bacteria were cultured in LB medium at 37 °C for 10 h, and then the bacterial suspension was diluted in Mueller–Hinton (MH) medium to a cell density of 2 × 10^5 colony forming units (CFU)/mL as the working suspension. The poly(Naeg)20 was serially diluted by MH medium in a 96-well plate, and an equal volume of bacterial suspension was added into each well. The final concentration of the poly(Naeg)20 was ranging from 200 to 1.56 μg/mL, and the plates were incubated at 37 °C for 9 h. Wells with inoculum and no polymer were used as the positive control; wells with only MH medium were used as the blank. The optical density (OD) in each well was measured on a Molecular Devices SpectraMax M2 precision microplate reader. The percentage of bacteria growth was calculated from1 %cellgrowth=A600polymer-A600blank/A600control-A600blank×100
(§3) The test was independently repeated at least three times.

S. aureus 2202 = test: MIC assay, clinical isolate; format: cell-based; conditions: Staphylococcus aureus, 2202
Description: as §1, §2, §3

S. aureus 2902 = test: MIC assay, clinical isolate; format: cell-based; conditions: Staphylococcus aureus, 2902
Description: as §1, §2, §3

E. faecium 0502 = test: MIC assay, clinical isolate; format: cell-based; conditions: Enterococcus faecium, 0502
Description: as §1, §2, §3

E. faecalis 2305 = test: MIC assay, clinical isolate; format: cell-based; conditions: Enterococcus faecalis, 2305
Description: as §1, §2, §3

S. epidermidis 9397 = test: MIC assay, clinical isolate; format: cell-based; conditions: Staphylococcus epidermidis, 9397
Description: as §1, §2, §3

S. haemolyticus 0202 [1] = test: MIC assay, clinical isolate; format: cell-based; conditions: Staphylococcus haemolyticus, 0202
Description: as §1, §2, §3

S. aureus 2802 = test: MIC assay, clinical isolate; format: cell-based; conditions: Staphylococcus aureus, 2802
Description: as §1, §2, §3

S. aureus 2904 = test: MIC assay, clinical isolate; format: cell-based; conditions: Staphylococcus aureus, 2904
Description: as §1, §2, §3

S. haemolyticus 0202 [2] = test: Mouse peritonitis model, CFU in organs, blood and IP fluid, S. haemolyticus; format: in vivo; conditions: Figure 6f
Description: This infection model was conducted according to the previously reported method with slight modification. Female ICR mice (21–24 g) were used for MRSA-infected peritonitis model. Mice were infected by intraperitoneal administration of 0.2 mL of S. aureus USA300 LAC in saline (7.5 × 10^8 CFU/mL) supplemented with 5% mucin. […] Once the infected mice died, peritoneal lavage was performed by injecting 3.0 mL of saline into the peritoneal cavity and massaging the abdomen. Subsequently, the abdomen was opened and peritoneal fluid was recovered from the abdominal cavity for analysis. Blood samples were collected through cardiac puncture for analysis of CFU/mL. Then, different organs including the heart, liver, spleen, lung, and kidney were removed and homogenized in 0.1% TX-100 solution. The homogenate was serially diluted for plating on LB agar. After incubation at 37 °C for 14 h, the number of colonies on the plate was counted to calculate the bacteria burden. Surviving mice were euthanized at 48 h after infection. The blood, peritoneal fluid, and organs were collected for the determination of bacterial colonies. […] For the pretreatment group, mice were sacrificed and tissues were harvested to determine the CFU at 1 h post infection.
For experiments of S. epidermidis and S. haemolyticus infections, female ICR mice (22–24 g) were rendered neutropenic by treatment with 150 and 100 mg/kg of cyclophosphamide intraperitoneally at 4 days and 1 day prior to infection. Mice were infected by intraperitoneal administration of 0.2 mL of S. epidermidis 9397 (5.1 × 10^9 CFU/mL) or S. haemolyticus 0202 (2.6 × 10^9 CFU/mL) in saline. Other experiment conditions were similar to those in MRSA peritonitis model.

CN[C@H](CC(C)C)C(=O)N[C@H]1C(=O)N[C@@H](CC(N)=O)C(=O)N[C@H]2C(=O)N[C@H]3C(=O)N[C@H](C(=O)N[C@H](C(=O)O)c4cc(O)cc(O)c4-c4cc3ccc4O)[C@H](O)c3ccc(c(Cl)c3)Oc3cc2cc(c3O[C@@H]2O[C@H](CO)[C@@H](O)[C@H](O)[C@H]2O[C@H]2C[C@](C)(N)[C@H](O)[C@H](C)O2)Oc2ccc(cc2Cl)[C@H]1O [Vancomycin]
reduction in the bacterial burden on the wound compared with the saline group (S. aureus USA300 LAC): ~ 1.2 log | MIC (S. agalactiae 0613): 0.78 µg/mL (≈ 0.538 µM) | MIC (S. aureus 2202): 0.78 µg/mL (≈ 0.538 µM) | MIC (S. aureus 2902): 0.39 µg/mL (≈ 0.269 µM) | MIC (E. faecium 0502): > 200 µg/mL | MIC (E. faecalis 2305): 0.78 µg/mL (≈ 0.538 µM) | MIC (S. epidermidis 9397): 0.78 µg/mL (≈ 0.538 µM) | MIC (S. haemolyticus 0202 [1]): 1.56 µg/mL (≈ 1.08 µM) | MIC (S. aureus 2802): 0.39 µg/mL (≈ 0.269 µM) | MIC (S. aureus 2904): 0.39 µg/mL (≈ 0.269 µM) | Log10(CFU/mL IP fluid) (S. haemolyticus 0202 [2]; individual mouse 1 of 6): 3.226 Log10(CFU/mL) | Log10(CFU/mL IP fluid) (S. haemolyticus 0202 [2]; individual mouse 2 of 6): 4.392 Log10(CFU/mL) | Log10(CFU/mL IP fluid) (S. haemolyticus 0202 [2]; individual mouse 3 of 6): 3.853 Log10(CFU/mL) | Log10(CFU/mL IP fluid) (S. haemolyticus 0202 [2]; individual mouse 4 of 6): 4.647 Log10(CFU/mL) | Log10(CFU/mL IP fluid) (S. haemolyticus 0202 [2]; individual mouse 5 of 6): 4.595 Log10(CFU/mL) | Log10(CFU/mL IP fluid) (S. haemolyticus 0202 [2]; individual mouse 6 of 6): 4.235 Log10(CFU/mL) | Log10(CFU/mL Blood) (S. haemolyticus 0202 [2]; individual mouse 1 of 6): 3.398 Log10(CFU/mL) | Log10(CFU/mL Blood) (S. haemolyticus 0202 [2]; individual mouse 2 of 6): 3.213 Log10(CFU/mL) | Log10(CFU/mL Blood) (S. haemolyticus 0202 [2]; individual mouse 3 of 6): 2.602 Log10(CFU/mL) | Log10(CFU/mL Blood) (S. haemolyticus 0202 [2]; individual mouse 4 of 6): 3.336 Log10(CFU/mL) | Log10(CFU/mL Blood) (S. haemolyticus 0202 [2]; individual mouse 5 of 6): 2.62 Log10(CFU/mL) | Log10(CFU/mL Blood) (S. haemolyticus 0202 [2]; individual mouse 6 of 6): 0 Log10(CFU/mL) | Log10(CFU/g Heart) (S. haemolyticus 0202 [2]; individual mouse 1 of 6): 4.437 Log10(CFU/g) | Log10(CFU/g Heart) (S. haemolyticus 0202 [2]; individual mouse 2 of 6): 5.504 Log10(CFU/g) | Log10(CFU/g Heart) (S. haemolyticus 0202 [2]; individual mouse 3 of 6): 4.593 Log10(CFU/g) | Log10(CFU/g Heart) (S. haemolyticus 0202 [2]; individual mouse 4 of 6): 5.198 Log10(CFU/g) | Log10(CFU/g Heart) (S. haemolyticus 0202 [2]; individual mouse 5 of 6): 4.862 Log10(CFU/g) | Log10(CFU/g Heart) (S. haemolyticus 0202 [2]; individual mouse 6 of 6): 5.445 Log10(CFU/g) | Log10(CFU/g Kidney) (S. haemolyticus 0202 [2]; individual mouse 1 of 6): 4.477 Log10(CFU/g) | Log10(CFU/g Kidney) (S. haemolyticus 0202 [2]; individual mouse 2 of 6): 5.326 Log10(CFU/g) | Log10(CFU/g Kidney) (S. haemolyticus 0202 [2]; individual mouse 3 of 6): 5 Log10(CFU/g) | Log10(CFU/g Kidney) (S. haemolyticus 0202 [2]; individual mouse 4 of 6): 5.151 Log10(CFU/g) | Log10(CFU/g Kidney) (S. haemolyticus 0202 [2]; individual mouse 5 of 6): 5.103 Log10(CFU/g) | Log10(CFU/g Kidney) (S. haemolyticus 0202 [2]; individual mouse 6 of 6): 6.713 Log10(CFU/g) | Log10(CFU/g Liver) (S. haemolyticus 0202 [2]; individual mouse 1 of 6): 4.477 Log10(CFU/g) | Log10(CFU/g Liver) (S. haemolyticus 0202 [2]; individual mouse 2 of 6): 5.908 Log10(CFU/g) | Log10(CFU/g Liver) (S. haemolyticus 0202 [2]; individual mouse 3 of 6): 4.978 Log10(CFU/g) | Log10(CFU/g Liver) (S. haemolyticus 0202 [2]; individual mouse 4 of 6): 5.097 Log10(CFU/g) | Log10(CFU/g Liver) (S. haemolyticus 0202 [2]; individual mouse 5 of 6): 5.108 Log10(CFU/g) | Log10(CFU/g Liver) (S. haemolyticus 0202 [2]; individual mouse 6 of 6): 5.286 Log10(CFU/g) | Log10(CFU/g Lung) (S. haemolyticus 0202 [2]; individual mouse 1 of 6): 5.45 Log10(CFU/g) | Log10(CFU/g Lung) (S. haemolyticus 0202 [2]; individual mouse 2 of 6): 5.572 Log10(CFU/g) | Log10(CFU/g Lung) (S. haemolyticus 0202 [2]; individual mouse 3 of 6): 6.099 Log10(CFU/g) | Log10(CFU/g Lung) (S. haemolyticus 0202 [2]; individual mouse 4 of 6): 5.247 Log10(CFU/g) | Log10(CFU/g Lung) (S. haemolyticus 0202 [2]; individual mouse 5 of 6): 5.56 Log10(CFU/g) | Log10(CFU/g Lung) (S. haemolyticus 0202 [2]; individual mouse 6 of 6): 6.002 Log10(CFU/g) | Log10(CFU/g Spleen) (S. haemolyticus 0202 [2]; individual mouse 1 of 6): 6.652 Log10(CFU/g) | Log10(CFU/g Spleen) (S. haemolyticus 0202 [2]; individual mouse 2 of 6): 7.228 Log10(CFU/g) | Log10(CFU/g Spleen) (S. haemolyticus 0202 [2]; individual mouse 3 of 6): 6.728 Log10(CFU/g) | Log10(CFU/g Spleen) (S. haemolyticus 0202 [2]; individual mouse 4 of 6): 6.799 Log10(CFU/g) | Log10(CFU/g Spleen) (S. haemolyticus 0202 [2]; individual mouse 5 of 6): 6.226 Log10(CFU/g) | Log10(CFU/g Spleen) (S. haemolyticus 0202 [2]; individual mouse 6 of 6): 6.995 Log10(CFU/g)
